Data from ChEMBL document CHEMBL1201862, “PubChem BioAssay data set” (2004).
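Each compound was tested at five concentrations against cells in 96-well plates for 48 hours. GI50: concentration for 50% inhibition of growth.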 Activity calls are given as the source filed them. No stated cut-off is given here; in the data, active = GI50 up to about 1.1 µM and inactive = higher.

What was measured:
Assay in all cases: NCI tumour cell line growth inhibition, 48 h
HT-29 = tested on: HT-29
OVCAR-3 = tested on: OVCAR-3
NCI-H23 = tested on: NCI-H23
RPMI-8226 = tested on: RPMI-8226
HCT-116 = tested on: HCT-116
SNB-19 = tested on: SNB-19
SK-MEL-28 = tested on: SK-MEL-28
MDA-MB-435 = tested on: MDA-MB-435
BT-549 = tested on: BT-549
K562 = tested on: K562
786-0 = tested on: 786-0
UACC-62 = tested on: UACC-62
Malme-3M = tested on: Malme-3M
A498 = tested on: A498
OVCAR-5 = tested on: OVCAR-5
SN12C = tested on: SN12C
MDA-MB-231 = tested on: MDA-MB-231
NCI/ADR-RES = tested on: NCI/ADR-RES
HOP-62 = tested on: HOP-62
SF-539 = tested on: SF-539

Which results are given for `Cn1c(=O)[nH]c2sc3c(c2c1=N)CCCC3`?
GI50 (HT-29): > 75 µM (inactive); GI50 (OVCAR-3): > 75 µM (inactive); GI50 (NCI-H23): > 75 µM (inactive); GI50 (RPMI-8226): 50.1 µM (inactive); GI50 (HCT-116): > 75 µM (inactive); GI50 (SNB-19): > 75 µM (inactive); GI50 (SK-MEL-28): > 75 µM (inactive); GI50 (MDA-MB-435): > 75 µM (inactive); GI50 (BT-549): > 75 µM (inactive); GI50 (K562): > 75 µM (inactive); GI50 (786-0): > 75 µM (inactive); GI50 (UACC-62): > 75 µM (inactive); GI50 (Malme-3M): > 75 µM (inactive); GI50 (A498): > 75 µM (inactive); GI50 (OVCAR-5): > 75 µM (inactive); GI50 (SN12C): > 75 µM (inactive); GI50 (MDA-MB-231): > 75 µM (inactive); GI50 (NCI/ADR-RES): > 75 µM (inactive); GI50 (HOP-62): > 75 µM (inactive)

How did the GI50 (HT-29) turn out when `CSc1c(C(=O)Nc2ccccc2)c(N)n(N)c(=O)c1C#N` was run?
Its GI50 is > 100 µM (inactive).

What about the GI50 (OVCAR-3) of the same molecule?
The GI50 was > 100 µM (inactive).

And the GI50 (NCI-H23)?
The GI50 was > 100 µM (inactive).

And the GI50 (RPMI-8226)?
The GI50 was > 100 µM (inactive).

What about the GI50 (HCT-116) of the same molecule?
The GI50 was > 100 µM (inactive).

And the GI50 (SNB-19)?
The GI50 was > 100 µM (inactive).

And the GI50 (SK-MEL-28)?
Its GI50 is > 100 µM (inactive).

What about the GI50 (MDA-MB-435) of the same molecule?
Its GI50 is > 100 µM (inactive).

What about the GI50 (BT-549) of the same molecule?
The GI50 was > 100 µM (inactive).

And the GI50 (K562)?
The GI50 was > 100 µM (inactive).

And the GI50 (786-0)?
The GI50 was > 100 µM (inactive).

And the GI50 (UACC-62)?
The GI50 was > 100 µM (inactive).

And the GI50 (Malme-3M)?
The GI50 was > 100 µM (inactive).

What about the GI50 (SF-539) of the same molecule?
Its GI50 is > 100 µM (inactive).

What about the GI50 (A498) of the same molecule?
The GI50 was 30.5 µM (inactive).

What about the GI50 (OVCAR-5) of the same molecule?
Its GI50 is > 100 µM (inactive).

And the GI50 (SN12C)?
Its GI50 is > 100 µM (inactive).

And the GI50 (MDA-MB-231)?
Its GI50 is > 100 µM (inactive).

What about the GI50 (NCI/ADR-RES) of the same molecule?
The GI50 was > 100 µM (inactive).

For `NCC(O)CSCc1ccc(Cl)cc1` (configuration not stated), which GI50 (HT-29) is on record?
The GI50 was > 100 µM (inactive).

And the GI50 (OVCAR-3)?
Its GI50 is > 100 µM (inactive).

And the GI50 (NCI-H23)?
The GI50 was > 100 µM (inactive).

What about the GI50 (RPMI-8226) of the same molecule?
The GI50 was > 100 µM (inactive).

What about the GI50 (HCT-116) of the same molecule?
Its GI50 is > 100 µM (inactive).

And the GI50 (SNB-19)?
The GI50 was > 100 µM (inactive).

And the GI50 (SK-MEL-28)?
Its GI50 is > 100 µM (inactive).

What about the GI50 (MDA-MB-435) of the same molecule?
Its GI50 is > 100 µM (inactive).

What about the GI50 (BT-549) of the same molecule?
Its GI50 is > 100 µM (inactive).

What about the GI50 (K562) of the same molecule?
Its GI50 is > 100 µM (inactive).

And the GI50 (786-0)?
Its GI50 is > 100 µM (inactive).

And the GI50 (UACC-62)?
Its GI50 is > 100 µM (inactive).

What about the GI50 (Malme-3M) of the same molecule?
The GI50 was > 100 µM (inactive).

And the GI50 (A498)?
The GI50 was > 100 µM (inactive).

What about the GI50 (OVCAR-5) of the same molecule?
Its GI50 is > 100 µM (inactive).

And the GI50 (SN12C)?
The GI50 was > 100 µM (inactive).

What about the GI50 (MDA-MB-231) of the same molecule?
The GI50 was > 100 µM (inactive).

What about the GI50 (NCI/ADR-RES) of the same molecule?
Its GI50 is > 100 µM (inactive).

And the GI50 (HOP-62)?
The GI50 was > 100 µM (inactive).

`CCN(CC)c1ccc2cc(C(=O)Nc3ccc(C)cc3)c(=N)oc2c1` was tested. Which GI50 (HT-29) did it give?
Its GI50 is > 100 µM (inactive).

And the GI50 (OVCAR-3)?
The GI50 was > 100 µM (inactive).

What about the GI50 (NCI-H23) of the same molecule?
The GI50 was > 100 µM (inactive).

What about the GI50 (RPMI-8226) of the same molecule?
The GI50 was > 100 µM (inactive).

And the GI50 (HCT-116)?
The GI50 was > 100 µM (inactive).

What about the GI50 (SNB-19) of the same molecule?
The GI50 was > 100 µM (inactive).

What about the GI50 (SK-MEL-28) of the same molecule?
Its GI50 is > 100 µM (inactive).

And the GI50 (MDA-MB-435)?
The GI50 was > 100 µM (inactive).

And the GI50 (BT-549)?
The GI50 was > 100 µM (inactive).

What about the GI50 (K562) of the same molecule?
Its GI50 is > 100 µM (inactive).

What about the GI50 (786-0) of the same molecule?
The GI50 was > 100 µM (inactive).

What about the GI50 (UACC-62) of the same molecule?
Its GI50 is > 100 µM (inactive).

What about the GI50 (Malme-3M) of the same molecule?
Its GI50 is > 100 µM (inactive).

And the GI50 (A498)?
Its GI50 is > 100 µM (inactive).

And the GI50 (OVCAR-5)?
Its GI50 is > 100 µM (inactive).

What about the GI50 (SN12C) of the same molecule?
Its GI50 is > 100 µM (inactive).

And the GI50 (MDA-MB-231)?
The GI50 was > 100 µM (inactive).

And the GI50 (NCI/ADR-RES)?
The GI50 was > 100 µM (inactive).

And the GI50 (HOP-62)?
Its GI50 is > 100 µM (inactive).

`N#CCC(=O)c1cc(OCc2cc(OCc3ccc(Br)cc3)cc(OCc3ccc(Br)cc3)c2)cc(OCc2cc(OCc3ccc(Br)cc3)cc(OCc3ccc(Br)cc3)c2)c1` was tested. Which GI50 (OVCAR-3) did it give?
Its GI50 is > 100 µM (inactive).

And the GI50 (NCI-H23)?
The GI50 was > 100 µM (inactive).

And the GI50 (RPMI-8226)?
The GI50 was > 100 µM (inactive).

And the GI50 (HCT-116)?
The GI50 was > 100 µM (inactive).

What about the GI50 (SNB-19) of the same molecule?
The GI50 was > 100 µM (inactive).

What about the GI50 (SK-MEL-28) of the same molecule?
The GI50 was > 100 µM (inactive).

What about the GI50 (MDA-MB-435) of the same molecule?
The GI50 was > 100 µM (inactive).

And the GI50 (BT-549)?
The GI50 was > 100 µM (inactive).

And the GI50 (K562)?
Its GI50 is 0.264 µM (active).

What about the GI50 (786-0) of the same molecule?
Its GI50 is > 100 µM (inactive).

And the GI50 (UACC-62)?
The GI50 was > 100 µM (inactive).

What about the GI50 (Malme-3M) of the same molecule?
Its GI50 is > 100 µM (inactive).

And the GI50 (A498)?
The GI50 was > 100 µM (inactive).

What about the GI50 (OVCAR-5) of the same molecule?
The GI50 was > 100 µM (inactive).

What about the GI50 (SN12C) of the same molecule?
The GI50 was > 100 µM (inactive).

What about the GI50 (MDA-MB-231) of the same molecule?
Its GI50 is > 100 µM (inactive).

And the GI50 (NCI/ADR-RES)?
The GI50 was > 100 µM (inactive).

And the GI50 (HOP-62)?
The GI50 was > 100 µM (inactive).

`CC[C@]12C=CCN3CC[C@@]4(c5cc(N=O)c(OC)cc5N(C)[C@H]4[C@@](O)(C(=O)NC(Cc4c[nH]c5ccccc45)C(=O)OC)[C@@H]1O)[C@@H]32` (some centres not stated) was tested. Which GI50 (HT-29) did it give?
The GI50 was 14.1 µM (inactive).

And the GI50 (OVCAR-3)?
The GI50 was 14.4 µM (inactive).

What about the GI50 (NCI-H23) of the same molecule?
Its GI50 is 17.7 µM (inactive).

What about the GI50 (HCT-116) of the same molecule?
Its GI50 is 12.9 µM (inactive).

What about the GI50 (SNB-19) of the same molecule?
Its GI50 is 19.9 µM (inactive).

And the GI50 (SK-MEL-28)?
Its GI50 is 31.3 µM (inactive).

What about the GI50 (MDA-MB-435) of the same molecule?
The GI50 was 17.1 µM (inactive).

And the GI50 (BT-549)?
The GI50 was 14.9 µM (inactive).

And the GI50 (K562)?
Its GI50 is 3.92 µM (inactive).

What about the GI50 (786-0) of the same molecule?
The GI50 was 30 µM (inactive).

And the GI50 (UACC-62)?
Its GI50 is 16 µM (inactive).

And the GI50 (Malme-3M)?
Its GI50 is 18.6 µM (inactive).

And the GI50 (SF-539)?
The GI50 was 16.6 µM (inactive).

What about the GI50 (A498) of the same molecule?
The GI50 was 32.4 µM (inactive).

What about the GI50 (OVCAR-5) of the same molecule?
The GI50 was 19.5 µM (inactive).

What about the GI50 (SN12C) of the same molecule?
Its GI50 is 26.4 µM (inactive).

And the GI50 (MDA-MB-231)?
Its GI50 is 18.3 µM (inactive).

And the GI50 (NCI/ADR-RES)?
The GI50 was > 100 µM (inactive).

And the GI50 (HOP-62)?
Its GI50 is 18.2 µM (inactive).

Which GI50 (HT-29) does the source give for `Cc1cc(C(=O)CCCCOc2ccc(C3=NCCO3)cc2)c(C)n1C` here?
Its GI50 is 39.1 µM (inactive).

And the GI50 (OVCAR-3)?
Its GI50 is 38.8 µM (inactive).

And the GI50 (NCI-H23)?
Its GI50 is 41.1 µM (inactive).

What about the GI50 (RPMI-8226) of the same molecule?
Its GI50 is 37.3 µM (inactive).

And the GI50 (HCT-116)?
The GI50 was 39.9 µM (inactive).

What about the GI50 (SNB-19) of the same molecule?
The GI50 was 25.1 µM (inactive).

What about the GI50 (SK-MEL-28) of the same molecule?
Its GI50 is 25.4 µM (inactive).

What about the GI50 (MDA-MB-435) of the same molecule?
Its GI50 is 24.7 µM (inactive).

And the GI50 (BT-549)?
Its GI50 is 33.3 µM (inactive).

And the GI50 (K562)?
The GI50 was 39.2 µM (inactive).

And the GI50 (786-0)?
The GI50 was 38.6 µM (inactive).

What about the GI50 (UACC-62) of the same molecule?
Its GI50 is > 10 µM (inactive).

And the GI50 (Malme-3M)?
Its GI50 is 35.3 µM (inactive).

And the GI50 (A498)?
The GI50 was 34.6 µM (inactive).

And the GI50 (OVCAR-5)?
The GI50 was 71.6 µM (inactive).

What about the GI50 (SN12C) of the same molecule?
Its GI50 is 56.5 µM (inactive).

And the GI50 (MDA-MB-231)?
Its GI50 is > 100 µM (inactive).

And the GI50 (NCI/ADR-RES)?
Its GI50 is 26.7 µM (inactive).

What about the GI50 (HOP-62) of the same molecule?
Its GI50 is 52.7 µM (inactive).
